These results are taken from ChEMBL document CHEMBL5665440, “ASAP - In vitro liver microsomal stability” (2024).

“And” between values parts separate entries of the source, which are not always exact repeats. Identical values can stand only once.

In general, half-life refers to the time needed for the level to fall by half in the phase considered. High values mean slow loss, low ones fast loss. For orientation: microsomal CLint means a measure of how fast metabolising enzymes remove a compound, apart from limits set by blood flow.

Data set [1] in a line: Human liver microsomal stability of compound in microsomal protein, PBS buffer pH 7.4, NADPH, glucose-6-phosphate and glucose-6-phosphate dehydrogenase media. Aliquotes were taken at 5 time points and after stopping the reaction, supernatants were analyzed using HPLC coupled with a tandem mass spectrometer. The elimination constant, half-life, and intrinsic clearance are determined as results using linear regression analysis. It is filed as ADME, microsomes, Microsome. The conditions noted are these: for half-life / microsomal CLint: liver microsomes; for Remaining / Remaining (without cofactor) / CLint / T1/2: microsomes.

A short description of data set [2]: Mouse liver microsomal stability of compound in microsomal protein, PBS buffer pH 7.4, NADPH, glucose-6-phosphate and glucose-6-phosphate dehydrogenase media. Aliquotes were taken at 5 time points and after stopping the reaction, supernatants were analyzed using HPLC coupled with a tandem mass spectrometer. The elimination constant, half-life, and intrinsic clearance are determined as results using linear regression analysis. Format: ADME, microsomes, Microsome. The following applies: for half-life / microsomal CLint: liver microsomes; for Remaining / Remaining (without cofactor) / CLint / T1/2: microsomes. (Liver microsomes are vesicles of endoplasmic reticulum, rich in cytochrome P450 enzymes.)
Wherever Remaining (without cofactor) is given: time not given here.
Wherever Remaining is given: time not given here.

Regarding `O=C(NCC(F)F)[C@H](Nc1ccc2c(c1)CNC2)c1cc(Cl)cc(C2CC2)c1`, in data set [1], the half-life is above 2.89 h; the microsomal CLint was below 10 µL/min/mg; the Remaining is 87.774% and 93.401% and 87.317% and 91.082%; the “Remaining (without cofactor)” value was 101.867% and 96.07% and 104.631% and 112.978%. Besides, in data set [2], the half-life is above 2.89 h; the intrinsic clearance (microsomal CLint) is below 10 µL/min/mg; the Remaining was 90.622% and 93.184%; the “Remaining (without cofactor)” value is 90.232% and 99.155%.

As to `O=C1Cc2c(cccc2C(=O)Nc2ccc3c(c2)CNC3)N1`, in data set [1], the half-life was above 2.89 h, the intrinsic clearance (microsomal CLint) was below 10 µL/min/mg, the Remaining was determined as 90.707% and the “Remaining (without cofactor)” value came to 85.739%. For the same compound, in data set [2], the half-life was above 2.89 h, the microsomal CLint is below 10 µL/min/mg, the Remaining is given as 102.559% and the “Remaining (without cofactor)” value was found to be 103.618%.

For `O=C(Nc1ccc2c(c1)CNC2)c1cc(F)cc2[nH]ncc12`, in data set [1], the half-life was above 2.89 h, the microsomal CLint was below 10 µL/min/mg, the Remaining is recorded as 86.703% and the “Remaining (without cofactor)” value worked out at 98.509%. Further, in data set [2], the half-life was 0.154 h, the intrinsic clearance (microsomal CLint) was determined as 180 µL/min/mg, the Remaining stood at 5.066% and the “Remaining (without cofactor)” value was 103.462%.

Consider `O=C(Nc1ccc2c(c1)CNC2)c1cc(Cl)cc2ccncc12`, for which, in data set [1], the half-life was above 2.89 h, the microsomal CLint is below 10 µL/min/mg, the Remaining turned out to be 107.799% and the “Remaining (without cofactor)” value was found to be 101.944%. In data set [2], the half-life worked out at 1.14 h, the intrinsic metabolic clearance (microsomal CLint) turned out to be 24.5 µL/min/mg, the Remaining stood at 67.731% and the “Remaining (without cofactor)” value is 99.51%.

For `O=C(Nc1ccc2c(c1)CNC2)c1cc(F)cc(-c2cn[nH]c2)c1`, in data set [1], the half-life is 0.79 h; the microsomal CLint amounted to 35.2 µL/min/mg; the CLint is 36.323 µL/min/mg; the Remaining was 55.679% and 55.059%. In data set [1], the “Remaining (without cofactor)” value was 98.537% and 92.131%; the T1/2 stood at 0.76638 h. Also, in data set [2], the half-life was found to be 0.051 h; the microsomal CLint was found to be 545 µL/min/mg; the CLint amounted to 553.458 µL/min/mg; the Remaining was 0.198% and 0.909%. Also, in data set [2], the “Remaining (without cofactor)” value is 96.471% and 97.807%; the T1/2 stood at 3.018 min.

Take `O=C(Nc1ccc2c(c1)CNC2)c1cc(Cl)cc2cn[nH]c12`: in data set [1], the half-life was above 2.89 h, the microsomal CLint is below 10 µL/min/mg, the Remaining is on record as 105.314% and the “Remaining (without cofactor)” value was 104.393%. In addition, in data set [2], the half-life worked out at 0.516 h, the microsomal CLint amounted to 54 µL/min/mg, the Remaining is given as 41.728% and the “Remaining (without cofactor)” value is listed as 98.046%.

Regarding `N#Cc1cccc(-c2nc3c(C(=O)Nc4ccc5c(c4)CNC5)cc(F)cc3[nH]2)c1`, in data set [1], the half-life is above 2.89 h, the microsomal CLint was below 10 µL/min/mg, the Remaining was 89.52% and the “Remaining (without cofactor)” value turned out to be 98.721%. Besides, in data set [2], the half-life was 1.27 h, the intrinsic metabolic clearance (microsomal CLint) came to 22 µL/min/mg, the Remaining is 68.981% and the “Remaining (without cofactor)” value is 99.493%.

Take `O=C(Nc1cc2c(c(-c3c[nH]c(=O)c(F)c3)c1)CNC2)c1cc(F)cc2[nH]ncc12`: in data set [1], the half-life is above 2.89 h, the microsomal CLint was below 10 µL/min/mg, the Remaining came to 95.49% and the “Remaining (without cofactor)” value came to 97.444%. Besides, in data set [2], the half-life is 0.115 h, the microsomal CLint was determined as 243 µL/min/mg, the Remaining is given as 2.163% and the “Remaining (without cofactor)” value is 108.846%.

Turning to `CNC(=O)[C@H](Nc1ccc2c(c1)CNC2)c1cc(Cl)cc2[nH]c(-c3ccccc3)nc12`, in data set [1], the half-life was above 2.89 h, the microsomal CLint is below 10 µL/min/mg, the Remaining is listed as 91.331% and the “Remaining (without cofactor)” value was 107.659%. Moreover, in data set [2], the half-life was above 2.89 h, the intrinsic clearance (microsomal CLint) was below 10 µL/min/mg, the Remaining came out at 95.033% and the “Remaining (without cofactor)” value is 94.186%.

Regarding `N#Cc1cc2c(cc1NC(=O)c1cc(F)cc3[nH]ncc13)CNC2`, in data set [1], the half-life is above 2.89 h; the microsomal CLint was below 10 µL/min/mg; the CLint was determined as 16.74 µL/min/mg; the Remaining is 85.714% and 76.558%. Besides, in data set [1], the “Remaining (without cofactor)” value is 101.075% and 93.161%; the T1/2 worked out at 1.6629 h. Also, in data set [2], the half-life turned out to be 0.0957 h; the microsomal CLint worked out at 291 µL/min/mg; the CLint amounted to 288.453 µL/min/mg; the Remaining was 0.854% and 0.916%. For the same compound, in data set [2], the “Remaining (without cofactor)” value was 97.455% and 90.578%; the T1/2 is recorded as 5.79 min.

Turning to `O=C(Nc1cc2c(cc1C1CC1)CNC2)c1cc(F)cc2[nH]ncc12`, in data set [1], the half-life was above 2.89 h, the microsomal CLint is below 10 µL/min/mg, the Remaining stood at 104.365% and the “Remaining (without cofactor)” value is given as 104.155%. Moreover, in data set [2], the half-life came out at 0.321 h, the microsomal CLint was found to be 86.8 µL/min/mg, the Remaining stood at 23.262% and the “Remaining (without cofactor)” value was found to be 95.024%.

Consider `Cn1c(=O)[nH]c2c(C(=O)Nc3ccc4c(c3)CNC4)cc(Br)cc21`, for which, in data set [1], the half-life was above 2.89 h, the intrinsic clearance (microsomal CLint) was below 10 µL/min/mg, the Remaining is listed as 97.872% and the “Remaining (without cofactor)” value is on record as 85.479%. Also, in data set [2], the half-life was determined as 2.23 h, the intrinsic clearance (microsomal CLint) is 12.5 µL/min/mg, the Remaining came out at 78.028% and the “Remaining (without cofactor)” value worked out at 113.254%.

Consider `O=C(Nc1ccc2c(c1)CNC2)c1cc(F)cc2c1CCC2`, for which, in data set [1], the half-life was above 2.89 h, the microsomal CLint is below 10 µL/min/mg, the Remaining is given as 95.811% and the “Remaining (without cofactor)” value is recorded as 102.779%. In addition, in data set [2], the half-life turned out to be 0.745 h, the intrinsic metabolic clearance (microsomal CLint) amounted to 37.4 µL/min/mg, the Remaining was determined as 53.571% and the “Remaining (without cofactor)” value was determined as 103.66%.

Consider `O=C(NCC(F)F)[C@H](Nc1ccc2c(c1)CNC2)c1cc(Cl)cc2ccoc12`, for which, in data set [1], the half-life was above 2.89 h, the intrinsic clearance (microsomal CLint) is below 10 µL/min/mg, the Remaining was 100.816% and the “Remaining (without cofactor)” value is 103.719%. Further, in data set [2], the half-life was above 2.89 h, the intrinsic metabolic clearance (microsomal CLint) is below 10 µL/min/mg, the Remaining is 93.727% and the “Remaining (without cofactor)” value is listed as 105.352%.

On to `O=C(Nc1ccc2c(c1)CNC2)c1cc(F)cc2[nH]c(-c3ccc(F)cc3)nc12`, for which, in data set [1], the half-life is above 2.89 h, the microsomal CLint is below 10 µL/min/mg, the Remaining came out at 90% and the “Remaining (without cofactor)” value was determined as 94.287%. Moreover, in data set [2], the half-life came to 0.756 h, the intrinsic clearance (microsomal CLint) worked out at 36.8 µL/min/mg, the Remaining was determined as 54.776% and the “Remaining (without cofactor)” value is 103.385%.

As for `COc1cc(-c2cc(NC(=O)c3cc(F)cc4[nH]ncc34)cc3c2CNC3)ccn1`, in data set [1], the half-life was above 2.89 h, the microsomal CLint is below 10 µL/min/mg, the Remaining came to 90.289% and the “Remaining (without cofactor)” value was found to be 101.002%. In data set [2], the half-life is 0.107 h, the microsomal CLint turned out to be 260 µL/min/mg, the Remaining amounted to 1.475% and the “Remaining (without cofactor)” value was 106.757%.

On to `CC(C)n1cc2c(C(=O)Nc3ccc4c(c3)CNC4)cc(Cl)cc2n1`, for which, in data set [1], the half-life is above 2.89 h, the microsomal CLint is below 10 µL/min/mg, the Remaining was determined as 96.618% and the “Remaining (without cofactor)” value came to 96.957%. Moreover, in data set [2], the half-life was above 2.89 h, the microsomal CLint was below 10 µL/min/mg, the Remaining is 89.02% and the “Remaining (without cofactor)” value is on record as 93.513%.

As for `O=C(Nc1cc2c(cc1Br)CNC2)c1cc(F)cc2[nH]ncc12`, in data set [1], the half-life came out at 2.44 h, the intrinsic clearance (microsomal CLint) worked out at 11.4 µL/min/mg, the Remaining worked out at 83.663% and the “Remaining (without cofactor)” value is 98.81%. For the same compound, in data set [2], the half-life amounted to 0.093 h, the microsomal CLint amounted to 299 µL/min/mg, the Remaining was 0.737% and the “Remaining (without cofactor)” value is given as 95.151%.

Regarding `O=C(Nc1cc2c(c(C3=CCS(=O)(=O)CC3)c1)CNC2)c1cc(F)cc2[nH]ncc12`, in data set [1], the half-life is above 2.89 h, the intrinsic clearance (microsomal CLint) was below 10 µL/min/mg, the Remaining turned out to be 98.934% and the “Remaining (without cofactor)” value came out at 96.094%. In data set [2], the half-life is 0.287 h, the intrinsic metabolic clearance (microsomal CLint) came to 96.9 µL/min/mg, the Remaining is on record as 20.909% and the “Remaining (without cofactor)” value came out at 113.863%.

For `O=C(Nc1ccc2c(c1)CNC2)c1cc(Cl)cc2c1cnn2C1CCC1`, in data set [1], the half-life is above 2.89 h, the microsomal CLint was below 10 µL/min/mg, the Remaining was 93.064% and the “Remaining (without cofactor)” value was found to be 105.277%. Besides, in data set [2], the half-life worked out at 2.08 h, the microsomal CLint came to 13.4 µL/min/mg, the Remaining is 78.077% and the “Remaining (without cofactor)” value stood at 96.092%.

Turning to `O=C(Nc1cc2c(c(C3=CCOCC3)c1)CNC2)c1cc(F)cc2[nH]ncc12`, in data set [1], the half-life was above 2.89 h, the microsomal CLint is below 10 µL/min/mg, the Remaining is 90.19% and the “Remaining (without cofactor)” value is given as 105.644%. Moreover, in data set [2], the half-life is 0.184 h, the intrinsic clearance (microsomal CLint) came to 152 µL/min/mg, the Remaining is given as 8.587% and the “Remaining (without cofactor)” value is listed as 96.063%.
